# From publication PMC8025945 (Journal of medicinal chemistry, 2017)
# Where two headings read alike, the source gives them in different places.
# Experiments:
# recombinant Top1 = biological target: T1, recombinant Top1 (Homo sapiens, UniProt P11387); assay: Top1-mediated DNA cleavage assay; assay type: biochemical; conditions: semiquantitative scale relative to 1 μM MJ-III-65 (6) and 1 μM camptothecin (1)
# T1 sequence (P11387 1-765): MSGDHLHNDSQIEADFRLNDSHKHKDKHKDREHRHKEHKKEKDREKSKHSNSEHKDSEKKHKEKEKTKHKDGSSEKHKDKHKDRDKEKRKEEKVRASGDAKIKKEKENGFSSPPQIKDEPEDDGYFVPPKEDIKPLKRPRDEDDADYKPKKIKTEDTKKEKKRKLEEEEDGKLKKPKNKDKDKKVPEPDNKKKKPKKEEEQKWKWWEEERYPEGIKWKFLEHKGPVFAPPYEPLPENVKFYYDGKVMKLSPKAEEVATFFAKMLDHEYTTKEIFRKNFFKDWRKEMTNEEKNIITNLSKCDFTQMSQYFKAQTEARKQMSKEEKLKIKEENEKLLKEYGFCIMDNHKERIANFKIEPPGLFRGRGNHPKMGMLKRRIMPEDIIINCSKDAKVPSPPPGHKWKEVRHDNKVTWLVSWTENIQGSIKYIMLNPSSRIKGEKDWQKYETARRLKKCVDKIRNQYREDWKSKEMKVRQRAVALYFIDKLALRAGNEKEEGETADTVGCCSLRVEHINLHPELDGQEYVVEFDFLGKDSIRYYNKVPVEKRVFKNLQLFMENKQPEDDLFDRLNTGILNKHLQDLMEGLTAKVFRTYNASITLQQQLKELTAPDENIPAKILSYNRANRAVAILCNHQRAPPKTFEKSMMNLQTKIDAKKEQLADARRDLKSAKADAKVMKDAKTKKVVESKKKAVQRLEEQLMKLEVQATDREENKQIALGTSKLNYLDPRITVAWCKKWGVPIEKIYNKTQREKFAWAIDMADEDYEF
# zebrafish embryos = conditions: for lethality in zebrafish (comparison between compounds): statistical comparison of 9, 16b and 17b
# SF-539 = assay: NCI-60 human tumor cell line screen, CNS SF-539; conditions: read-out: cytotoxicity (GI50) CNS SF-539; 50% growth inhibition
# DU-145 = assay: NCI-60 human tumor cell line screen, prostate DU-145; conditions: read-out: cytotoxicity (GI50) prostate DU-145; 50% growth inhibition
# HOP-62 = assay: NCI-60 human tumor cell line screen, lung HOP-62; conditions: read-out: cytotoxicity (GI50) lung HOP-62; 50% growth inhibition
# MCF-7 = assay: NCI-60 human tumor cell line screen, breast MCF-7; conditions: read-out: cytotoxicity (GI50) breast MCF-7; 50% growth inhibition
# SN12C = assay: NCI-60 human tumor cell line screen, renal SN12C; conditions: read-out: cytotoxicity (GI50) renal SN12C; 50% growth inhibition
# HCT-116 = assay: NCI-60 human tumor cell line screen, colon HCT-116; conditions: read-out: cytotoxicity (GI50) colon HCT-116; 50% growth inhibition
# OVCAR-3 = assay: NCI-60 human tumor cell line screen, ovarian OVCAR-3; conditions: read-out: cytotoxicity (GI50) ovarian OVCAR-3; 50% growth inhibition
# UACC-62 = assay: NCI-60 human tumor cell line screen, melanoma UACC-62; conditions: read-out: cytotoxicity (GI50) melanoma UACC-62; 50% growth inhibition
# [1] = test system: NCI-60 human tumor cell lines; assay: NCI-60 mean graph midpoint; conditions: read-out: MGM GI50
smiles,measurement,setting,value
"COc1cnc2c(c1)C(=O)c1c-2n(CCCN2CCN(C)CC2)c(=O)c2cc(Cl)ccc12 [compound 16j, 3-Chloro-9-methoxy-6-(3-(4-methylpiperazin-1-yl)propyl)-5H-pyrido[3′,2′:4,5]cyclopenta[1,2-c]isoquinoline-5,11(6H)-dione]",enzyme inhibitory activity Top1 (compound-induced DNA cleavage score),recombinant Top1,+
"COc1cnc2c(c1)C(=O)c1c-2n(CCCNC2=NCCS2)c(=O)c2cc(Cl)ccc12 [compound 16c, 3-Chloro-6-(3-((4,5-dihydrothiazol-2-yl)amino)propyl)-9-methoxy-5H-pyrido[3′,2′:4,5]cyclopenta[1,2-c]isoquinoline-5,11(6H)-dione]",enzyme inhibitory activity Top1 (compound-induced DNA cleavage score),recombinant Top1,++
"CC[C@@]1(O)C(=O)OCc2c1cc1n(c2=O)Cc2cc3ccccc3nc2-1 [compound 1, camptothecin]",enzyme inhibitory activity Top1 (compound-induced DNA cleavage score),recombinant Top1,++++
"COc1cnc2c(c1)C(=O)c1c-2n(CCCN2CCC(O)CC2)c(=O)c2cc(F)ccc12 [17d, 3-Fluoro-6-(3-(4-hydroxypiperidin-1-yl)propyl)-9-methoxy-5H-pyrido[3′,2′:4,5]cyclopenta[1,2-c]isoquinoline-5,11(6H)-dione]",enzyme inhibitory activity Top1 (compound-induced DNA cleavage score),recombinant Top1,+
"COc1cnc2c(c1)C(=O)c1c-2n(CCCN2CCOCC2)c(=O)c2cc(F)ccc12 [17a, 3-Fluoro-9-methoxy-6-(3-morpholinopropyl)-5H-pyrido[3′,2′:4,5]cyclopenta[1,2-c]isoquinoline-5,11(6H)-dione]",enzyme inhibitory activity Top1 (compound-induced DNA cleavage score),recombinant Top1,+++
"COc1cnc2c(c1)C(=O)c1c-2n(CCCN2CCOCC2)c(=O)c2cc(Cl)ccc12 [compound 16a, 3-Chloro-9-methoxy-6-(3-morpholinopropyl)-5H-pyrido[3′,2′:4,5]cyclopenta[1,2-c]isoquinoline-5,11(6H)-dione]",enzyme inhibitory activity Top1 (compound-induced DNA cleavage score),recombinant Top1,+++
"COc1cnc2c(c1)C(=O)c1c-2n(CCCn2ccnc2)c(=O)c2cc(Cl)ccc12 [compound 16b, 3-Chloro-6-(3-(1H-Imidazol-1-yl)propyl)-9-methoxy-5H-pyrido[3′,2′:4,5]cyclopenta[1,2-c]isoquinoline-5,11(6H)-dione]",enzyme inhibitory activity Top1 (compound-induced DNA cleavage score),recombinant Top1,+++
same,lethality in zebrafish (comparison between compounds),zebrafish embryos,lethality difference between them is not significant
"COc1cnc2c(c1)C(=O)c1c-2n(CCCn2ccnc2)c(=O)c2cc(F)ccc12 [compound 17b, 3-Fluoro-6-(3-(1H-imidazol-1-yl)propyl)-9-methoxy-5H-pyrido[3′,2′:4,5]-cyclopenta[1,2-c]isoquinoline-5,11(6H)-dione]",enzyme inhibitory activity Top1 (compound-induced DNA cleavage score),recombinant Top1,+++
same,lethality in zebrafish (comparison between compounds),zebrafish embryos,lethality difference between them is not significant
"COc1cnc2c(c1)C(=O)c1c-2n(CCCN2CCNCC2)c(=O)c2cc(Cl)ccc12 [16e, 3-Chloro-9-methoxy-6-(3-(piperazin-1-yl)propyl)-5H-pyrido[3′,2′:4,5]cyclopenta[1,2-c]isoquinoline-5,11(6H)-dione]",enzyme inhibitory activity Top1 (compound-induced DNA cleavage score),recombinant Top1,+
"COc1cnc2c(c1)C(=O)c1c-2n(CCCN2CCNCC2)c(=O)c2cc(F)ccc12 [17e, 3-Fluoro-9-methoxy-6-(3-(piperazin-1-yl)propyl)-5H-pyrido[3′,2′:4,5]cyclopenta[1,2-c]isoquinoline-5,11(6H)-dione]",enzyme inhibitory activity Top1 (compound-induced DNA cleavage score),recombinant Top1,+
O=C1c2ccccc2-c2c1c1ccc([N+](=O)[O-])cc1c(=O)n2CCCn1ccnc1 [compound 7],GI50,SF-539,16 nM
same,GI50,DU-145,17 nM
same,GI50,HOP-62,190 nM
same,GI50,MCF-7,2170 nM
same,GI50,SN12C,15 nM
same,GI50,HCT-116,274 nM
same,GI50,OVCAR-3,864 nM
same,enzyme inhibitory activity Top1 (compound-induced DNA cleavage score),recombinant Top1,++++
same,GI50,UACC-62,12 nM
"CCNCCCn1c2c(c3ccc(F)cc3c1=O)C(=O)c1cc(OC)cnc1-2 [17h, 6-(3-(Ethylamino)propyl)-3-fluoro-9-methoxy-5H-pyrido[3′,2′:4,5]cyclopenta[1,2-c]isoquinoline-5,11(6H)-dione]",enzyme inhibitory activity Top1 (compound-induced DNA cleavage score),recombinant Top1,++
COc1cnc2c(c1)C(=O)c1c-2n(CCCn2ccnc2)c(=O)c2cc([N+](=O)[O-])ccc12 [compound 9],GI50,SF-539,< 10 nM
same,GI50,DU-145,< 10 nM
same,GI50,[1],21 nM
same,GI50,HOP-62,< 10 nM
same,GI50,MCF-7,< 10 nM
same,GI50,SN12C,< 10 nM
same,GI50,HCT-116,< 10 nM
same,GI50,OVCAR-3,25 nM
same,zebrafish survival percentage,"zebrafish embryos; 0.1 μM in medium, 48 h after fertilization",0 ± 0 %
same,zebrafish survival percentage,"zebrafish embryos; 0.1 μM in medium, 72 h after fertilization",0 ± 0 %
same,zebrafish survival percentage,"zebrafish embryos; 0.1 μM in medium, 96 h after fertilization",0 ± 0 %
same,zebrafish survival percentage,"zebrafish embryos; 0.1 μM in medium, 120 h after fertilization",0 ± 0 %
same,zebrafish survival percentage,"zebrafish embryos; 1 μM in medium, 24 h after fertilization",0 ± 0 %
same,zebrafish survival percentage,"zebrafish embryos; 1 μM in medium, 48 h after fertilization",0 ± 0 %
same,zebrafish survival percentage,"zebrafish embryos; 1 μM in medium, 72 h after fertilization",0 ± 0 %
same,zebrafish survival percentage,"zebrafish embryos; 1 μM in medium, 96 h after fertilization",0 ± 0 %
same,zebrafish survival percentage,"zebrafish embryos; 1 μM in medium, 120 h after fertilization",0 ± 0 %
same,zebrafish survival percentage,"zebrafish embryos; 10 μM in medium, 24 h after fertilization",0 ± 0 %
same,zebrafish survival percentage,"zebrafish embryos; 10 μM in medium, 48 h after fertilization",0 ± 0 %
same,zebrafish survival percentage,"zebrafish embryos; 10 μM in medium, 72 h after fertilization",0 ± 0 %
same,zebrafish survival percentage,"zebrafish embryos; 10 μM in medium, 96 h after fertilization",0 ± 0 %
same,zebrafish survival percentage,"zebrafish embryos; 10 μM in medium, 120 h after fertilization",0 ± 0 %
same,lethality in zebrafish (comparison between compounds),zebrafish embryos,significantly more lethal
same,GI50,UACC-62,< 10 nM
COc1cnc2c(c1)C(=O)c1c-2n(CCCN2CCOCC2)c(=O)c2cc([N+](=O)[O-])ccc12 [compound 10],GI50,SF-539,35 nM
same,GI50,DU-145,40 nM
same,GI50,HOP-62,51 nM
same,GI50,MCF-7,20 nM
same,GI50,SN12C,43 nM
same,GI50,HCT-116,50 nM
same,GI50,OVCAR-3,110 nM
same,enzyme inhibitory activity Top1 (compound-induced DNA cleavage score),recombinant Top1,++++
same,GI50,UACC-62,40 nM
"COc1cnc2c(c1)C(=O)c1c-2n(CCCNC2=NCCS2)c(=O)c2cc(F)ccc12 [17c, 3-Fluoro-6-(3-((4,5-dihydrothiazol-2-yl)amino)propyl)-9-methoxy-5H-pyrido[3′,2′:4,5]cyclopenta[1,2-c]isoquinoline-5,11(6H)-dione]",enzyme inhibitory activity Top1 (compound-induced DNA cleavage score),recombinant Top1,++
"CNCCCn1c2c(c3ccc(F)cc3c1=O)C(=O)c1cc(OC)cnc1-2 [17g, 3-Fluoro-9-methoxy-6-(3-(methylamino)propyl)-5H-pyrido[3′,2′:4,5]cyclopenta[1,2-c]isoquinoline-5,11(6H)-dione]",enzyme inhibitory activity Top1 (compound-induced DNA cleavage score),recombinant Top1,+
"COc1cnc2c(c1)C(=O)c1c-2n(CCCNC(C)C)c(=O)c2cc(F)ccc12 [17f, 3-Fluoro-6-(3-(isopropylamino)propyl)-9-methoxy-5H-pyrido[3′,2′:4,5]cyclopenta[1,2-c]isoquinoline-5,11(6H)-dione]",enzyme inhibitory activity Top1 (compound-induced DNA cleavage score),recombinant Top1,++
"COc1cnc2c(c1)C(=O)c1c-2n(CCCN2CCCC2)c(=O)c2cc(F)ccc12 [17i, 3-Fluoro-9-methoxy-6-(3-(pyrrolidin-1-yl)propyl)-5H-pyrido[3′,2′:4,5]cyclopenta[1,2-c]isoquinoline-5,11(6H)-dione]",enzyme inhibitory activity Top1 (compound-induced DNA cleavage score),recombinant Top1,+++
"COc1cnc2c(c1)C(=O)c1c-2n(CCCN2CCC(O)CC2)c(=O)c2cc(Cl)ccc12 [compound 16d, 3-Chloro-6-(3-(4-hydroxypiperidin-1-yl)propyl)-9-methoxy-5H-pyrido[3′,2′:4,5]cyclopenta[1,2-c]isoquinoline-5,11(6H)-dione]",enzyme inhibitory activity Top1 (compound-induced DNA cleavage score),recombinant Top1,++++
"COc1cnc2c(c1)C(=O)c1c-2n(CCCNC(C)C)c(=O)c2cc(Cl)ccc12 [16f, 3-Chloro-9-methoxy-6-(3-(isopropylamino)propyl)-5H-pyrido[3′,2′:4,5]cyclopenta[1,2-c]isoquinoline-5,11(6H)-dione]",enzyme inhibitory activity Top1 (compound-induced DNA cleavage score),recombinant Top1,++
